ChEMBL document CHEMBL5321213, “Nicolaioidesin C: An Antiausterity Agent Shows Promising Antitumor Activity in a Pancreatic Cancer Xenograft Mouse Model” (J Nat Prod, 2023)
Active and inactive are the calls of the source. No cut-off for these calls is given here.

Tests used:
MIA PaCa-2 [1] = test: Antitumor activity against human MIA PaCa-2 cells xenografted in athymic BALB/c-nu mouse assessed as fold change in cytidine 5'-monophosphate-N-acetylneuraminic acid level in tumor at 10 mg/kg/day, ip administered five times per week for 4 weeks by LC-MS analysis; type: functional
MIA PaCa-2 [2] = test: Inhibition of autophagy in human MIA PaCa-2 cells in DMEM medium assessed as downregulation of LC3 protein expression at 5 to 20 uM measured after 6 hrs by Western blot analysis; type: functional, cell-based; conditions: dose 5-20 µM
MIA PaCa-2 [3] = test: Antitumor activity against human MIA PaCa-2 cells xenografted in athymic BALB/c-nu mouse assessed as fold change in 4-(methylthio)-2-oxobutyricacid level in tumor at 10 mg/kg/day, ip administered five times per week for 4 weeks by LC-MS analysis; type: functional
[4] = Toxicity in athymic BALB/c-nu mouse xenografted with human MIA PaCa-2 cells assessed as animal death at 2 to 10 mg/kg/day, ip administered five times per week for 4 weeks; type: organism-based; conditions: in vivo, 672 h, dose 2-10 mg/kg/day
MIA PaCa-2 [5] = test: Antitumor activity against human MIA PaCa-2 cells xenografted in athymic BALB/c-nu mouse assessed as fold change in asparagine level in tumor at 2 mg/kg/day, ip administered five times per week for 4 weeks by LC-MS analysis; type: functional
MIA PaCa-2 [6] = test: Antitumor activity against human MIA PaCa-2 cells xenografted in athymic BALB/c-nu mouse assessed as fold change in N-acetyl- L-glutamic acid level in tumor at 2 mg/kg/day, ip administered five times per week for 4 weeks by LC-MS analysis; type: functional
MIA PaCa-2 [7] = test: Antitumor activity against human MIA PaCa-2 cells xenografted in athymic BALB/c-nu mouse assessed as fold change in cytosine level in tumor at 2 mg/kg/day, ip administered five times per week for 4 weeks by LC-MS analysis; type: functional
MIA PaCa-2 [8] = test: Inhibition of Akt/mTOR signaling pathway in human MIA PaCa-2 cells in DMEM media assessed as reduction in AKT phosphorylation at S473 residue at 5 to 20 uM measured after 6 hrs by Western blot analysis; type: cell-based; conditions: dose 5-20 µM
MIA PaCa-2 [9] = test: Antitumor activity against human MIA PaCa-2 cells xenografted in athymic BALB/c-nu mouse assessed as tumor growth inhibition at 2 mg/kg/day, ip administered five times per week for 4 weeks relative to control; type: functional; conditions: MIA PaCa-2, 672 h, read-out: TGI
PANC-1 = test: Antimetastatic activity in human PANC-1 cells in nutrient-rich medium assessed as open wound area at 20 uM measured every 15 mins for 48 hrs by live cell imaging analysis relative to control; type: functional
MIA PaCa-2 [10] = test: Antitumor activity against human MIA PaCa-2 cells xenografted in athymic BALB/c-nu mouse assessed as fold change in leucine level in tumor at 10 mg/kg/day, ip administered five times per week for 4 weeks by LC-MS analysis; type: functional
MIA PaCa-2 [11] = test: Antitumor activity against human MIA PaCa-2 cells xenografted in athymic BALB/c-nu mouse assessed as fold change in 5'-methylthioadenosine level in tumor at 2 mg/kg/day, ip administered five times per week for 4 weeks by LC-MS analysis; type: functional
MIA PaCa-2 [12] = test: Antitumor activity against human MIA PaCa-2 cells xenografted in athymic BALB/c-nu mouse assessed as fold change in 4-(methylthio)-2-oxobutyric acid level in tumor at 2 mg/kg/day, ip administered five times per week for 4 weeks by LC-MS analysis; type: functional
MIA PaCa-2 [13] = test: Antitumor activity against human MIA PaCa-2 cells xenografted in athymic BALB/c-nu mouse assessed as fold change in 2,6-diaminopimelicacid level in tumor at 10 mg/kg/day, ip administered five times per week for 4 weeks by LC-MS analysis; type: functional
MIA PaCa-2 [14] = test: Antitumor activity against human MIA PaCa-2 cells xenografted in athymic BALB/c-nu mouse assessed as fold change in arabinosyl hypoxanthine level in tumor at 10 mg/kg/day, ip administered five times per week for 4 weeks by LC-MS analysis; type: functional
MIA PaCa-2 [15] = test: Antitumor activity against human MIA PaCa-2 cells xenografted in athymic BALB/c-nu mouse assessed as fold change in uracil level in tumor at 2 mg/kg/day, ip administered five times per week for 4 weeks by LC-MS analysis; type: functional
MIA PaCa-2 [16] = test: Antitumor activity against human MIA PaCa-2 cells xenografted in athymic BALB/c-nu mouse assessed as fold change in D-glucuronic acid level in tumor at 2 mg/kg/day, ip administered five times per week for 4 weeks by LC-MS analysis; type: functional
MIA PaCa-2 [17] = test: Antitumor activity against human MIA PaCa-2 cells xenografted in athymic BALB/c-nu mouse assessed as fold change in lysine level in tumor at 2 mg/kg/day, ip administered five times per week for 4 weeks by LC-MS analysis; type: functional
MIA PaCa-2 [18] = test: Antitumor activity against human MIA PaCa-2 cells xenografted in athymic BALB/c-nu mouse assessed as fold change in alanine level in tumor at 10 mg/kg/day, ip administered five times per week for 4 weeks by LC-MS analysis; type: functional
MIA PaCa-2 [19] = test: Antitumor activity against human MIA PaCa-2 cells xenografted in athymic BALB/c-nu mouse assessed as fold change in D-ribulose5-phosphate level in tumor at 10 mg/kg/day, ip administered five times per week for 4 weeks by LC-MS analysis; type: functional
MIA PaCa-2 [20] = test: Antitumor activity against human MIA PaCa-2 cells xenografted in athymic BALB/c-nu mouse assessed as reduction in LC3-1 level in tumor at 2 to 10 mg/kg/day, ip administered five times per week for 4 weeks by immunohistochemistry analysis; type: functional, organism-based; conditions: dose 2-10 mg/kg/day
MIA PaCa-2 [21] = test: Antitumor activity against human MIA PaCa-2 cells xenografted in athymic BALB/c-nu mouse assessed as fold change in 5'-methylthioadenosine level in tumor at 10 mg/kg/day, ip administered five times per week for 4 weeks by LC-MS analysis; type: functional
MIA PaCa-2 [22] = test: Antitumor activity against human MIA PaCa-2 cells xenografted in athymic BALB/c-nu mouse assessed as fold change in Gly-Leu metabolite level in tumor at 2 mg/kg/day, ip administered five times per week for 4 weeks by LC-MS analysis; type: functional
MIA PaCa-2 [23] = test: Antitumor activity against human MIA PaCa-2 cells xenografted in athymic BALB/c-nu mouse assessed as fold change in arabinosyl hypoxanthine level in tumor at 2 mg/kg/day, ip administered five times per week for 4 weeks by LC-MS analysis; type: functional
MIA PaCa-2 [24] = test: Antitumor activity against human MIA PaCa-2 cells xenografted in athymic BALB/c-nu mouse assessed as fold change in 1-aminocyclopropanecarboxylicacid level in tumor at 2 mg/kg/day, ip administered five times per week for 4 weeks by LC-MS analysis; type: functional
MIA PaCa-2 [25] = test: Antitumor activity against human MIA PaCa-2 cells xenografted in athymic BALB/c-nu mouse assessed as fold change in tyrosine level in tumor at 10 mg/kg/day, ip administered five times per week for 4 weeks by LC-MS analysis; type: functional
MIA PaCa-2 [26] = test: Preferential cytotoxicity against human MIA PaCa-2 cells in nutrient-deprived medium assessed as alteration in cell morphology by measuring cell blebbing at 5 uM measured after 24 hrs by acridine orange and ethidium bromide dual fluorescent staining based imaging analysis; type: functional
MIA PaCa-2 [27] = test: Antimetastatic activity in human MIA PaCa-2 cells in nutrient-rich medium assessed as open wound area at 20 uM measured every 15 mins for 24 hrs by live cell imaging analysis (reference value: 62%); type: functional

COc1cc(O)c(C(=O)[C@@H]2CC=C(CCC=C(C)C)C[C@H]2c2ccccc2)c(O)c1
fold change (FC) (MIA PaCa-2 [1]): 0.31
inhibition (MIA PaCa-2 [2]): inactive
fold change (FC) (MIA PaCa-2 [3]): 0.41
Activity [4]: Non-Toxic
fold change (FC) (MIA PaCa-2 [5]): 0.33
fold change (FC) (MIA PaCa-2 [6]): 0.45
fold change (FC) (MIA PaCa-2 [7]): 0.73
inhibition (MIA PaCa-2 [8]): inactive
inhibition in vivo at 2 mg/kg/day (MIA PaCa-2 [9]): 51%
Activity (PANC-1): 24%
fold change (FC) (MIA PaCa-2 [10]): 0.41
fold change (FC) (MIA PaCa-2 [11]): 0.33
fold change (FC) (MIA PaCa-2 [12]): 0.48
fold change (FC) (MIA PaCa-2 [13]): 0.36
fold change (FC) (MIA PaCa-2 [14]): 0.21
fold change (FC) (MIA PaCa-2 [15]): 0.29
fold change (FC) (MIA PaCa-2 [16]): 1.03
fold change (FC) (MIA PaCa-2 [17]): 0.32
fold change (FC) (MIA PaCa-2 [18]): 0.42
fold change (FC) (MIA PaCa-2 [19]): 0.22
Activity (MIA PaCa-2 [20]): Active
fold change (FC) (MIA PaCa-2 [21]): 0.25
fold change (FC) (MIA PaCa-2 [22]): 0.45
fold change (FC) (MIA PaCa-2 [23]): 0.46
fold change (FC) (MIA PaCa-2 [24]): 0.8
fold change (FC) (MIA PaCa-2 [25]): 0.43
Activity (MIA PaCa-2 [26]): Active
Activity (MIA PaCa-2 [27]): 87%
